Columns and labels:
annexin A2 = assay: EPR binding of L2 peptide to annexin A2
Experimental: Recombinant annexin A2 was expressed in BL21(DE3) Escherichia coli cells and purified using reversible Ca^2+-dependent binding to negatively charged phospholipid vesicles followed by size exclusion chromatography. A pET23A vector containing the S100A10 sequence (a gift from Volker Gerke) was expressed in BL21(DE3) cells as previously described. Both proteins were stored at 4°C in 20 mM HEPES buffer at pH 7.4, containing 100 mM NaCl with the addition of 1 mM dithiothreitol. Concentrations of all proteins and peptides, including the A2t complex, were determined using bicinchoninic acid assays (Pierce Thermo Scientific, Rockford, IL) compared to measured absorbance of albumin standards at 562 nm. Purified annexin A2 and S100A10 were combined at a molar ratio of 1∶1 and concentrated to over 8 µg/µl. The mixture was incubated overnight at 4°C, and then loaded onto a superdex 200 10/300 GL (GE Healthcare USA) column equilibrated in the previously mentioned HEPES buffer. The eluted A2t peak was collected and subjected to peptide binding assays.
The L2_108–126 peptides used in our EPR studies were synthesized with a cysteine at the N-terminus, and followed by a spacer of 3 physiological amino acids (C-IVS) preceding the canonical L2_108–126 and L2 scrambled sequences (C-IVS-[…] and C-IVS-[…] respectively). Peptides were combined with 8× molar excess paramagnetic label (1-oxyl-2, 2, 5, 5-tetramethyl-Δ3-pyrroline-3-methyl) (R1) methanethiosulfonate (MTSL), (Toronto Research Chemicals, Canada) and left to react overnight at 4°C. Free label was removed by gel filtration (PD10 GE, United Kingdom). All peptides were solubilized into HEPES buffer. For competition assays, the scrambled peptide was non-paramagnetic labeled with an N-acetylated MTSL paramagnetic-label analog (1-acetyl-2,2,5,5- tetramethyl-Δ3-pyrroline-3-methyl) (R1′) at an 8× molar excess to emulate the paramagnetic label on control peptides. Binding interactions were examined by combining paramagnetically-labeled L2 peptide with A2t, BSA, ANXA2, or S100A10 (20 µM, 100 µM, 100 µM, 100 µM, and 100 µM respectively) in 10 µL volumes of the HEPES buffer, confined by glass capillaries, and measured at room temperature over a period of 24 hours using a Bruker EMX X-band EPR spectrometer. For the cysteine blocked S100A10, S100A10 was treated with R1′ and excess label was removed via gel filtration (see above) before the addition of paramagnetic labeled peptides. […] To quantify the amount of bound peptide spectra of all tested proteins in combination with the L2_108–126 or ScrL2 peptides were compared to the spectra of L2_108–126 or ScrL2 peptides alone in solution using a spectra analyzing software (EPR 130, University of California, Los Angeles). […]

[1] = test system: Bovine Serum Albumin (BSA); assay: EPR binding of L2 peptide to BSA (specificity control); settings: 20 µM peptide, 100 µM BSA
Excerpt: The L2_108–126 peptides used in our EPR studies were synthesized with a cysteine at the N-terminus, and followed by a spacer of 3 physiological amino acids (C-IVS) preceding the canonical L2_108–126 and L2 scrambled sequences (C-IVS-LVEETSFIDAGAPTSVPSI and C-IVS-IESPVSDTALGTPEIFVSA respectively). Peptides were combined with 8× molar excess paramagnetic label (1-oxyl-2, 2, 5, 5-tetramethyl-Δ3-pyrroline-3-methyl) (R1) methanethiosulfonate (MTSL), (Toronto Research Chemicals, Canada) and left to react overnight at 4°C. Free label was removed by gel filtration (PD10 GE, United Kingdom). All peptides were solubilized into HEPES buffer. […] Binding interactions were examined by combining paramagnetically-labeled L2 peptide with A2t, BSA, ANXA2, or S100A10 (20 µM, 100 µM, 100 µM, 100 µM, and 100 µM respectively) in 10 µL volumes of the HEPES buffer, confined by glass capillaries, and measured at room temperature over a period of 24 hours using a Bruker EMX X-band EPR spectrometer. […] To quantify the amount of bound peptide spectra of all tested proteins in combination with the L2_108–126 or ScrL2 peptides were compared to the spectra of L2_108–126 or ScrL2 peptides alone in solution using a spectra analyzing software (EPR 130, University of California, Los Angeles). […]

[2] = test system: surface of HeLa, SiHa and CaSki cells; settings: ref [28], cited from earlier work
HepG2 cell line = settings: ref [28]; cited from earlier work
Excerpt: Nonetheless, the link between HSV and H ...

C-IVS-LVEETSFIDAGAPTSVPSI [L2_108–126, HPV16 L2 aa 108–126 peptide with N-terminal cysteine and IVS spacer]
relative % bound to annexin A2 (annexin A2; 20 µM peptide, 100 µM ANXA2, mean of three separate experiments): 23.6%
interaction with annexin A2 subunit (annexin A2; discussion): minimal interaction
relative % bound to annexin A2 in presence of ScrL2 (annexin A2; scrambled peptide 5∶1, mean of three separate experiments): 17.7%
binding to BSA [1]: does not bind BSA in a significant manner
binding to cell lines ([2]; SiHa, CaSki, [29] (b5), [23], [28]): can bind to the surface of several human cell lines
binding to HeLa cells with substitutions at aa 108–111 ([2]; aa 108–111 substituted (LVEE to GGDD)): decrease the binding
binding to A2t-deficient HepG2 cells vs cervical cancer cell lines (HepG2 cell line): bind significantly less

Source: publication PMC3425544, “The S100A10 Subunit of the Annexin A2 Heterotetramer Facilitates L2-Mediated Human Papillomavirus Infection” (PLoS ONE, 2012)
